Reference: ChEMBL document CHEMBL5131545, “Targeting NOX2 via p47/phox-p22/phox Inhibition with Novel Triproline Mimetics” (ACS Med Chem Lett, 2022)
pKd: −log10 of the molar value. *1 amine or outer side, *2 acyl side, *3 side chain or, on linkers, in order; H or OH if unused. Where a SMILES comes first, the peptide text is derived from it. The star is where a group is joined. X1 = Clc1ccc(-c2cccc(N*)c2)cc1Cl; Suc = O=C(CCC(=O)[*:2])[*:1]; X2 = C(CC1CC1)N*

biological target: T1, Neutrophil cytosol factor 1 (Homo sapiens, UniProt P14598); experiment: Binding affinity to human N-terminal TEV cleavable 6His tagged p47phox (151-285 residues) assessed as dissociation […] constant by Surface plasmon resonance assay
T1 sequence (P14598 whole entry): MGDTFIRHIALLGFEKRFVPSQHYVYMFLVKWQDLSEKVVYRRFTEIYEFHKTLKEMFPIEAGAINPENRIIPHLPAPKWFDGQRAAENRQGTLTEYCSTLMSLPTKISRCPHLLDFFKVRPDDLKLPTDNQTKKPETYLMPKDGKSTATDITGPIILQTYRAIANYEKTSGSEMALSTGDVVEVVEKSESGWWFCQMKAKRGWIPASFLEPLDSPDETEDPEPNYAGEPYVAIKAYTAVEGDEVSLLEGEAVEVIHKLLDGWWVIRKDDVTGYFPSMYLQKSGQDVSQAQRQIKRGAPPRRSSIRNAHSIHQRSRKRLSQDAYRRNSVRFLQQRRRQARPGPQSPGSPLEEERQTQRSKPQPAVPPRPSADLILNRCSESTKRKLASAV

**Q.** How did the pKd turn out when `N=C(N)NCCC[C@H](NC(=O)[C@@H]1CCCN1C(=O)[C@@H]1CCCN1C(=O)[C@@H]1CCCN1C(=O)CCC(=O)Nc1cccc(-c2ccc(Cl)c(Cl)c2)c1)C(=O)NCCC1CC1` ({X1-Suc}-PPPR-X2) was run?
**A.** 7.37

**Q.** `N=C(N)NCCC[C@H](NC(=O)[C@@H]1CCCN1C(=O)[C@@H]1CCC[C@H]1[C@@H](O)[C@@H]1CCCN1C(=O)CCC(=O)Nc1cccc(-c2ccc(Cl)c(Cl)c2)c1)C(=O)NCCC1CC1` was tested. Which pKd did it give?
**A.** < 4.52

**Q.** With `N=C(N)NCC1CCN(C(=O)[C@@H]2CCCN2C(=O)[C@@H]2CCCN2C(=O)[C@@H]2CCCN2C(=O)CCC(=O)Nc2cccc(-c3cnco3)c2)CC1` as the compound, how does the pKd read?
**A.** 5.24

**Q.** How did the pKd turn out when `C[C@H](NC(=O)[C@@H]1CCCN1C(=O)[C@@H]1CCCN1C(=O)[C@H](CCCNC(=N)N)NC(=O)[C@@H]1CCCN1C(=O)[C@@H]1CCCN1C(=O)[C@@H]1CCCN1C(=O)[C@H](CC(N)=O)NC(=O)[C@H](CO)NC(=O)[C@@H]1CCCN1C(=O)[C@@H]1CCCN1)C(=O)O` (H-PPSNPPPRPPA-OH) was run?
**A.** 6.67

**Q.** How did the pKd turn out when `N=C(N)NCCC[C@H](NC(=O)[C@@H]1CCC[C@H]1[C@@H](O)[C@@H]1CCCN1C(=O)[C@@H]1CCCN1C(=O)CCC(=O)Nc1cccc(-c2ccc(Cl)c(Cl)c2)c1)C(=O)NCCC1CC1` was run?
**A.** 6.51
